Laboratory results: ChEMBL document CHEMBL4507257, “Data for DCP probe ABT-100” (2021)

How the values were obtained:
[1] = system: Tyrosine-protein kinase ABL1 (Homo sapiens), P00519 [F317L]; details: Compound concentration 1000.0 nM
[2] = target: RAC-beta serine/threonine-protein kinase (Homo sapiens) (UniProt P31751); details: Compound concentration 1000.0 nM
[3] = target: Calcium/calmodulin-dependent protein kinase type 1 (Homo sapiens) (UniProt Q14012); details: Compound concentration 1000.0 nM
[4] = target: Calcium/calmodulin-dependent protein kinase type II subunit delta (Homo sapiens) (UniProt Q13557); details: Compound concentration 1000.0 nM
[5] = target: Peripheral plasma membrane protein CASK (Homo sapiens) (UniProt O14936); details: Compound concentration 1000.0 nM
[6] = target: Cyclin-dependent kinase 13 (Homo sapiens) (UniProt Q14004); details: Compound concentration 1000.0 nM
[7] = target: Casein kinase I isoform gamma-1 (Homo sapiens) (UniProt Q9HCP0); details: Compound concentration 1000.0 nM
[8] = target: Death-associated protein kinase 1 (Homo sapiens) (UniProt P53355); details: Compound concentration 1000.0 nM
[9] = target: Death-associated protein kinase 3 (Homo sapiens) (UniProt O43293); details: Compound concentration 1000.0 nM
[10] = target: Serine/threonine-protein kinase DCLK2 (Homo sapiens) (UniProt Q8N568); details: Compound concentration 1000.0 nM
[11] = target: Discoidin domain-containing receptor 2 (Homo sapiens) (UniProt Q16832); details: Compound concentration 1000.0 nM
[12] = target: Myotonin-protein kinase (Homo sapiens) (UniProt Q09013); details: Compound concentration 1000.0 nM
[13] = system: Epidermal growth factor receptor (Homo sapiens), P00533 [L858R]; details: Compound concentration 1000.0 nM
[14] = target: Ephrin type-A receptor 7 (Homo sapiens) (UniProt Q15375); details: Compound concentration 1000.0 nM
[15] = system: Fibroblast growth factor receptor 3 (Homo sapiens), P22607 [G697C]; details: Compound concentration 1000.0 nM
[16] = target: Receptor-type tyrosine-protein kinase FLT3 (Homo sapiens) (UniProt P36888); details: Compound concentration 1000.0 nM
[17] = system: Receptor-type tyrosine-protein kinase FLT3 (Homo sapiens), P36888 [D835Y]; details: Compound concentration 1000.0 nM
[18] = target: G protein-coupled receptor kinase 4 (Homo sapiens) (UniProt P32298); details: Compound concentration 1000.0 nM
[19] = target: Homeodomain-interacting protein kinase 1 (Homo sapiens) (UniProt Q86Z02); details: Compound concentration 1000.0 nM
[20] = system: Mast/stem cell growth factor receptor Kit (Homo sapiens), P10721 [D816V]; details: Compound concentration 1000.0 nM
[21] = system: Mast/stem cell growth factor receptor Kit (Homo sapiens), P10721 [L576P]; details: Compound concentration 1000.0 nM
[22] = target: Serine/threonine-protein kinase LATS1 (Homo sapiens) (UniProt O95835); details: Compound concentration 1000.0 nM
[23] = target: MAP/microtubule affinity-regulating kinase 3 (Homo sapiens) (UniProt P27448); details: Compound concentration 1000.0 nM
[24] = target: Serine/threonine-protein kinase 38 (Homo sapiens) (UniProt Q15208); details: Compound concentration 1000.0 nM
[25] = target: Serine/threonine-protein kinase Nek9 (Homo sapiens) (UniProt Q8TD19); details: Compound concentration 1000.0 nM
[26] = target: Mitogen-activated protein kinase 12 (Homo sapiens) (UniProt P53778); details: Compound concentration 1000.0 nM
[27] = system: Phosphatidylinositol 4,5-bisphosphate 3-kinase catalytic subunit alpha isoform (Homo sapiens), P42336 [E545K]; details: Compound concentration 1000.0 nM
[28] = target: Phosphatidylinositol 4,5-bisphosphate 3-kinase catalytic subunit delta isoform (Homo sapiens) (UniProt O00329); details: Compound concentration 1000.0 nM
[29] = target: Serine/threonine-protein kinase pim-1 (Homo sapiens) (UniProt P11309); details: Compound concentration 1000.0 nM
[30] = target: Phosphatidylinositol 5-phosphate 4-kinase type-2 beta (Homo sapiens) (UniProt P78356); details: Compound concentration 1000.0 nM
[31] = target: Protein kinase C epsilon type (Homo sapiens) (UniProt Q02156); details: Compound concentration 1000.0 nM
[32] = target: Ribosomal protein S6 kinase alpha-1 (Homo sapiens) (UniProt Q15418); details: Compound concentration 1000.0 nM
[33] = target: Ribosomal protein S6 kinase alpha-2 (Homo sapiens) (UniProt Q15349); details: Compound concentration 1000.0 nM
[34] = target: Serine/threonine-protein kinase Sgk1 (Homo sapiens) (UniProt O00141); details: Compound concentration 1000.0 nM
[35] = target: SNF-related serine/threonine-protein kinase (Homo sapiens) (UniProt Q9NRH2); details: Compound concentration 1000.0 nM
[36] = target: Serine/threonine-protein kinase TAO1 (Homo sapiens) (UniProt Q7L7X3); details: Compound concentration 1000.0 nM
[37] = target: BDNF/NT-3 growth factors receptor (Homo sapiens) (UniProt Q16620); details: Compound concentration 1000.0 nM
[38] = target: Non-receptor tyrosine-protein kinase TYK2 (Homo sapiens) (UniProt P29597); details: Compound concentration 1000.0 nM
[39] = target: Mitogen-activated protein kinase kinase kinase 20 (Homo sapiens) (UniProt Q9NYL2); details: Compound concentration 1000.0 nM
[40] = target: 5-hydroxytryptamine receptor 1E (Homo sapiens) (UniProt P28566); details: Compound concentration 10.0 uM
[41] = target: Sodium-dependent serotonin transporter (Homo sapiens) (UniProt P31645); details: Compound concentration 10.0 uM
[42] = target: Sodium-dependent dopamine transporter (Homo sapiens) (UniProt Q01959); details: Compound concentration 10.0 uM
[43] = target: Alpha-2C adrenergic receptor (Homo sapiens) (UniProt P18825); details: Compound concentration 10.0 uM
Rattus norvegicus = organism: Rattus norvegicus; details: Compound concentration 10.0 uM
[44] = target: Sigma non-opioid intracellular receptor 1 (Homo sapiens, UniProt Q99720); details: Compound concentration 10.0 uM

Non-receptor tyrosine-protein kinase TYK2 (Homo sapiens), sequence (P29597 whole entry): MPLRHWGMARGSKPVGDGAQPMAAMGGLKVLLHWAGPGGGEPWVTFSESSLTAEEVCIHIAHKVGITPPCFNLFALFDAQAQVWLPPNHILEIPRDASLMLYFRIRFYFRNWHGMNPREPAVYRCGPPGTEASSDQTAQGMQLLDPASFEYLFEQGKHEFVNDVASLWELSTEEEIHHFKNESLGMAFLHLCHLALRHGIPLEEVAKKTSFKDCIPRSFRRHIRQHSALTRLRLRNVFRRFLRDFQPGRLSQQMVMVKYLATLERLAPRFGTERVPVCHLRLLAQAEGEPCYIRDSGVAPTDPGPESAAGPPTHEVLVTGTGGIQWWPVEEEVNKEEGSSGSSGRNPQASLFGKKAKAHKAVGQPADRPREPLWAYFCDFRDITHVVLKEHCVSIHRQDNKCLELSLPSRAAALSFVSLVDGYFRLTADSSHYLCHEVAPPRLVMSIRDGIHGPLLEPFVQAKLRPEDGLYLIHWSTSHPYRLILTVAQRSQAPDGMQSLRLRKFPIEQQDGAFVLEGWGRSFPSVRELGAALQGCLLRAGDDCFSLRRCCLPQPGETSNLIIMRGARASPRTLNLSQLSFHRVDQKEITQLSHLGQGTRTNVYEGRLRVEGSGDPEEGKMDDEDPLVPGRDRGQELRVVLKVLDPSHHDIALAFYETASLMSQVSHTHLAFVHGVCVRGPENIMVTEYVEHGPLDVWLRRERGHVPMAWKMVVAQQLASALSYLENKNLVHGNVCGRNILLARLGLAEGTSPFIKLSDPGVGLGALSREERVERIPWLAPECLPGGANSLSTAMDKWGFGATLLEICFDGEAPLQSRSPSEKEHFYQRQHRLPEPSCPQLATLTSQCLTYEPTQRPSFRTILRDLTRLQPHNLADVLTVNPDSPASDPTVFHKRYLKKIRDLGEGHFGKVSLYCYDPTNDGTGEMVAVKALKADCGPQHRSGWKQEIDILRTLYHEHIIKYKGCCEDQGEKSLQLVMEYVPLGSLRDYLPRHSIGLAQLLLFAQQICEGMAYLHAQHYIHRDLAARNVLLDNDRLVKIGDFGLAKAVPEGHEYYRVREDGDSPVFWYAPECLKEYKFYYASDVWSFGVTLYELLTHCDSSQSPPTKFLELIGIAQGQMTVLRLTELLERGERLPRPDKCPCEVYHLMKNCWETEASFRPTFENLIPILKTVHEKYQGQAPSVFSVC
Phosphatidylinositol 5-phosphate 4-kinase type-2 beta (Homo sapiens), sequence (P78356 whole entry): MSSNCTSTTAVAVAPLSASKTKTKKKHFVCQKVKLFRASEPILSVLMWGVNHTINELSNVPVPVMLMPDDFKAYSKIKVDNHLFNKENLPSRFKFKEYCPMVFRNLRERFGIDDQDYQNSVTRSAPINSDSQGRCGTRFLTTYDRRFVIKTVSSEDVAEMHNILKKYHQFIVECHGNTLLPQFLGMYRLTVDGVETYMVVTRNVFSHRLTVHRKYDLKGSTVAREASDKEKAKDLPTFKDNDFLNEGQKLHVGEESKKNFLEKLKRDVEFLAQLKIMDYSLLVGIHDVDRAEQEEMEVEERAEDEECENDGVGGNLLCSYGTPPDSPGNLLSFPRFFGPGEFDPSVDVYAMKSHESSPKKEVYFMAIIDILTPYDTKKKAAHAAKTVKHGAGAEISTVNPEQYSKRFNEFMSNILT
SNF-related serine/threonine-protein kinase (Homo sapiens), sequence (Q9NRH2 whole entry): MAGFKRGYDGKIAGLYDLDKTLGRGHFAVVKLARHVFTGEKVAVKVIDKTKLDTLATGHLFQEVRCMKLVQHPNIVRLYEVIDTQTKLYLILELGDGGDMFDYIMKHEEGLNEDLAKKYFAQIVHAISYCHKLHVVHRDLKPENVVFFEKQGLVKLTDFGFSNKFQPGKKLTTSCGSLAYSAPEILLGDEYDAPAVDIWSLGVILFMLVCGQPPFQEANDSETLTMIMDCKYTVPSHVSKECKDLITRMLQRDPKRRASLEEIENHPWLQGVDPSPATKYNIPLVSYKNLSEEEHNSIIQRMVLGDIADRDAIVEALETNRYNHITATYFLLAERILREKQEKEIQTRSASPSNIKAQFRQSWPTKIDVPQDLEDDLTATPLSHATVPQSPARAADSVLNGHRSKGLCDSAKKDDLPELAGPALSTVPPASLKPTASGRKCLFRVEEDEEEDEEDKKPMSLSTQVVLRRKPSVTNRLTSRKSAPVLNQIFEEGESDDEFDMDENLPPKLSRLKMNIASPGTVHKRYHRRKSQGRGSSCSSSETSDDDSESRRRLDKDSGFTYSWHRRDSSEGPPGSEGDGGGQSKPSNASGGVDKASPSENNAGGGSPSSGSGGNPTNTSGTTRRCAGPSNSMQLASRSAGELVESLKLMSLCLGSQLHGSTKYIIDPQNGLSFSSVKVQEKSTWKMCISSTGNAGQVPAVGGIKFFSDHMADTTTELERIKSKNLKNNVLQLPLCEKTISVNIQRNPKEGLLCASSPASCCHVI
BDNF/NT-3 growth factors receptor (Homo sapiens), sequence (Q16620 32-822 limits assumed): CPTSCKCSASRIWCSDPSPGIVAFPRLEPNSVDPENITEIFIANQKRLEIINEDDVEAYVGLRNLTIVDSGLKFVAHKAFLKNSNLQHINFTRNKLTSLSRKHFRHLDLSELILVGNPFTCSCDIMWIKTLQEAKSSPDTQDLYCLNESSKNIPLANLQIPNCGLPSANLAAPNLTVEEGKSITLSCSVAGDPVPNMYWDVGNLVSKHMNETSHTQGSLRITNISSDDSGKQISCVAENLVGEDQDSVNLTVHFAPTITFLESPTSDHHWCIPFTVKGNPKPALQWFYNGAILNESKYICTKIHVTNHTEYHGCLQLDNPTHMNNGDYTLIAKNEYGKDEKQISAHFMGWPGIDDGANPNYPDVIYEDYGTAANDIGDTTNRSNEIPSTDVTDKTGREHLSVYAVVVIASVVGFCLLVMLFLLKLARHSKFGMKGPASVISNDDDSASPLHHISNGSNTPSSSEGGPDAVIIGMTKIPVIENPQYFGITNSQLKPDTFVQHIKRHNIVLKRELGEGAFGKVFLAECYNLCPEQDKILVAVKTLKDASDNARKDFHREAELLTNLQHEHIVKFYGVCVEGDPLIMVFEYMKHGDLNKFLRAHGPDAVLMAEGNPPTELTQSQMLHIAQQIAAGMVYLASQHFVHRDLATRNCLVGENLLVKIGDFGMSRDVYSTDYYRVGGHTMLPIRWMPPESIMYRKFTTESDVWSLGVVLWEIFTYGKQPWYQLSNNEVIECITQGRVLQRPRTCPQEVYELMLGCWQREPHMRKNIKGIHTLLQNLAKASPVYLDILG
Serine/threonine-protein kinase TAO1 (Homo sapiens), sequence (Q7L7X3 whole entry): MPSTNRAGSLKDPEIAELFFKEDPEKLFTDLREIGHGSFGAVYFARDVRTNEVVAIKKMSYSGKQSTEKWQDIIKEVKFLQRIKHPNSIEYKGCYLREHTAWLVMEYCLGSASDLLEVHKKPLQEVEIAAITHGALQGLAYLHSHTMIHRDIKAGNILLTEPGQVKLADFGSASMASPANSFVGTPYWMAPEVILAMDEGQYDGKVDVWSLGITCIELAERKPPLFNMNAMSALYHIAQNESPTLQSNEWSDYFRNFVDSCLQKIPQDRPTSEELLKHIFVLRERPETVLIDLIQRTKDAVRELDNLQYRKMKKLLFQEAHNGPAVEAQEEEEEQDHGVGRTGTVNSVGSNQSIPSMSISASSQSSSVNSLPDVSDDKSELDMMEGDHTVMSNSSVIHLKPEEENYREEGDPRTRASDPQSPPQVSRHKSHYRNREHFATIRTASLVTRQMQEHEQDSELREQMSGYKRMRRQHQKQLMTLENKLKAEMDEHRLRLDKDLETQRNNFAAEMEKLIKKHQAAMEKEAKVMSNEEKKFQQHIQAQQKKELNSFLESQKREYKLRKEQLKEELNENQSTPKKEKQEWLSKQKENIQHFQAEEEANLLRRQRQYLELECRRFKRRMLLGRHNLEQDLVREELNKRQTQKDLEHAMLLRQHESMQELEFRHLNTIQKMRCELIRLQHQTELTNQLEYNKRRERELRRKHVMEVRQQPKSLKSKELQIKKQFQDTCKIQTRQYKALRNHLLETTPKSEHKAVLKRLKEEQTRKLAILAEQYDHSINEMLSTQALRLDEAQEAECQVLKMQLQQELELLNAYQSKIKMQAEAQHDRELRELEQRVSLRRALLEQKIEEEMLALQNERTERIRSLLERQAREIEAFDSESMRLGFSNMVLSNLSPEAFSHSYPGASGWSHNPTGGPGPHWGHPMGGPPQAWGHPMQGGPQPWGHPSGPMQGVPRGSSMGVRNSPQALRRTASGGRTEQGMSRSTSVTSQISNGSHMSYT
Protein kinase C epsilon type (Homo sapiens), sequence (Q02156 whole entry): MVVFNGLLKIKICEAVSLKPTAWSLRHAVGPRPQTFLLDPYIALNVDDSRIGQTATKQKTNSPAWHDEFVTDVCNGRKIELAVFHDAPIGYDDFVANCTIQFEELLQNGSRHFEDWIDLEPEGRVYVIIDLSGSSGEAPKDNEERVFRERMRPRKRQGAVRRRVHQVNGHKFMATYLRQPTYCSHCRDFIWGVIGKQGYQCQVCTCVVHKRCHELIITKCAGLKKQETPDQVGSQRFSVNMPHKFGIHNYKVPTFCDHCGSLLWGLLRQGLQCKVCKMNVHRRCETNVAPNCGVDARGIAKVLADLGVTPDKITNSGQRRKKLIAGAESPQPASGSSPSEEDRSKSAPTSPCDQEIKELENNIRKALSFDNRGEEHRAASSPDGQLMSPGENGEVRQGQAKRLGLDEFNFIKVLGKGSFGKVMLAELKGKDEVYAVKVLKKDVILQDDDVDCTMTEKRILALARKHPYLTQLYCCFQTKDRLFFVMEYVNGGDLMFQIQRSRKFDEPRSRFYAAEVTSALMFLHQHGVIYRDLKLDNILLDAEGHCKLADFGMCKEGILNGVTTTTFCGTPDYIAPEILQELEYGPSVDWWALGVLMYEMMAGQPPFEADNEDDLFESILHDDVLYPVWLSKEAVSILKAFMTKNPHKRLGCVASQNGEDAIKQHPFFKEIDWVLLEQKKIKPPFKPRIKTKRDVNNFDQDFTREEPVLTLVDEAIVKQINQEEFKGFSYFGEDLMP

Cn1cncc1[C@@](O)(COc1ccc(C#N)cc1-c1ccc(OC(F)(F)F)cc1)c1ccc(C#N)cc1 [A-108]
residual activity [1]: 100% | residual activity [2]: 78% | residual activity [3]: 100% | residual activity [4]: 95% | residual activity [5]: 92% | residual activity [6]: 87% | residual activity [7]: 91% | residual activity [8]: 100% | residual activity [9]: 100% | residual activity [10]: 100% | residual activity [11]: 95% | residual activity [12]: 94% | residual activity [13]: 100% | residual activity [14]: 100% | residual activity [15]: 97% | residual activity [16]: 100% | residual activity [17]: 78% | residual activity [18]: 56% | residual activity [19]: 79% | residual activity [20]: 100% | residual activity [21]: 95% | residual activity [22]: 100% | residual activity [23]: 93% | residual activity [24]: 100% | residual activity [25]: 100% | residual activity [26]: 100% | residual activity [27]: 80% | residual activity [28]: 84% | residual activity [29]: 100% | residual activity [30]: 100% | residual activity [31]: 100% | residual activity [32]: 72% | residual activity [33]: 98% | residual activity [34]: 100% | residual activity [35]: 87% | residual activity [36]: 100% | residual activity [37]: 88% | residual activity [38]: 100% | residual activity [39]: 85% | inhibition [40]: 7.11% | inhibition [41]: -7.91% | inhibition [42]: 6.63% | inhibition [43]: 8.51% | inhibition (Rattus norvegicus): 9.56% | inhibition [44]: 92.3%

Cn1cncc1[C@](O)(COc1ccc(C#N)cc1-c1ccc(OC(F)(F)F)cc1)c1ccc(C#N)cc1 [ABT-100]
residual activity [1]: 100% | residual activity [2]: 81% | residual activity [3]: 99% | residual activity [4]: 100% | residual activity [5]: 83% | residual activity [6]: 67% | residual activity [7]: 90% | residual activity [8]: 84% | residual activity [9]: 88% | residual activity [10]: 98% | residual activity [11]: 100% | residual activity [12]: 98% | residual activity [13]: 86% | residual activity [14]: 91% | residual activity [15]: 60% | residual activity [16]: 87% | residual activity [17]: 95% | residual activity [18]: 62% | residual activity [19]: 100% | residual activity [20]: 85% | residual activity [21]: 100% | residual activity [22]: 87% | residual activity [23]: 100% | residual activity [24]: 75% | residual activity [25]: 72% | residual activity [26]: 100% | residual activity [27]: 97% | residual activity [28]: 79% | residual activity [29]: 96% | residual activity [30]: 100% | residual activity [31]: 79% | residual activity [32]: 89% | residual activity [33]: 85% | residual activity [34]: 76% | residual activity [35]: 100% | residual activity [36]: 87% | residual activity [37]: 92% | residual activity [38]: 100% | residual activity [39]: 100% | inhibition [40]: 1.11% | inhibition [41]: 1.25% | inhibition [42]: 9.99% | inhibition [43]: 5% | inhibition (Rattus norvegicus): -1.86% | inhibition [44]: 42.5%
